# Experimental data published in patent US12673925B2, “Compounds and compositions for eye treatments” (Avedro, Inc., priority 2018, dated 2026).
# Tested on: cornea of porcine whole globes
# Test: Porcine eye corneal flattening assay
# Details: de-epithelialized porcine cornea; 0.11% w/v in saline; UVA 4 mm circle, 365 nm, 30 mW/cm^2, pulsed, 16.2 min, 15 J, 90%+ oxygen, 37.0° C.
# Method: Protocol 1 (For Examples 8, 9, 10, 17, 18, 19, 20, 28, and 29): Porcine whole globes in saline at 4° C. were warmed to room temperature. […] The eye holders were then positioned inside an enclosed chamber that allows for the control of atmosphere, temperature and humidity (typically a water bath at 37.0° C.). IOP is maintained at a constant pressure by the insertion of a blood bank buffered saline line from an IV bag at a standard height inserted into each eye via a syringe needle. 5% Dextran T500 in blood bank buffered saline is dropped onto the surface of the cornea of each eye every 90 sec for 2 hours to allow the eyes to stabilize. […] The test eye is then orientated in a vertical position and the pre-treatment surface keratometry of the cornea measured using a Pentacam® HR device fine cornea 100 scan. […] After a further 1.5 hours during which the 5% dextran drops are resumed the eye is orientated back to the vertical position and the post-treatment surface keratometry of the cornea measured using a Pentacam® HR device fine cornea 100 scan as before. The difference map between the pre and post treatment corneal images is obtained and the overall change in keratometry (Km) of the central 3 mm zone recorded as a change in diopters. […]
structure (smiles),measurement,value
Cc1cc2nc(-c3nnnn3C)c(=O)n(C[C@H](O)[C@H](O)[C@H](O)CO)c2cc1C [Compound 40],Refractive Change (D),−2.5 D
